Source: ChEMBL document CHEMBL1201862, “PubChem BioAssay data set” (2004)
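Dose response: 5 concentrations. Exposure: 48 h. Format: 96-well plates. Endpoint: linear interpolation; highest concentration if not reached. Abbreviation: GI50, concentration required for 50% inhibition of growth.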 Calls of active or inactive are those of the source. Cut-off read from the data, not from the text of the source: active = GI50 up to about 1.1 µM and inactive = higher.

How the values were obtained:
Test in all cases: NCI-60 cell line screen, 48 h
[1] = test system: SN12C
[2] = test system: PC-3
[3] = test system: HCT-116
[4] = test system: MDA-N
[5] = test system: HOP-92
[6] = test system: NCI/ADR-RES
[7] = test system: OVCAR-3
[8] = test system: UACC-62
[9] = test system: A549
[10] = test system: SNB-75
[11] = test system: TK-10
[12] = test system: NCI-H23
[13] = test system: COLO 205
[14] = test system: SK-OV-3
[15] = test system: SK-MEL-2
[16] = test system: CAKI-1
[17] = test system: HT-29
[18] = test system: MDA-MB-435
[19] = test system: LOX IMVI
[20] = test system: SK-MEL-5
[21] = test system: NCI-H226
[22] = test system: U-251
[23] = test system: RXF 393
[24] = test system: IGROV-1
[25] = test system: K562
[26] = test system: A498
[27] = test system: SF-268
[28] = test system: 786-0
[29] = test system: EKVX
[30] = test system: SK-MEL-28
[31] = test system: HCT-15
[32] = test system: RPMI-8226
[33] = test system: MCF7
[34] = test system: ACHN
[35] = test system: M14
[36] = test system: HL-60
[37] = test system: SF-295
[38] = test system: MDA-MB-231
[39] = test system: MOLT-4
[40] = test system: SR
[41] = test system: NCI-H522
[42] = test system: OVCAR-5
[43] = test system: HCC 2998
[44] = test system: HOP-62
[45] = test system: KM12
[46] = test system: SF-539
[47] = test system: OVCAR-8
[48] = test system: SNB-19
[49] = test system: OVCAR-4
[50] = test system: Hs-578T
[51] = test system: DU-145
[52] = test system: Malme-3M
[53] = test system: UACC-257
[54] = test system: NCI-H460
[55] = test system: SW-620
[56] = test system: CCRF-CEM
[57] = test system: UO-31
[58] = test system: T47D

Measured: GI50

CCOC(CNc1nn2c(C)nnc2s1)OCC
inactive: [1] > 100 µM | [2] > 100 µM | [3] > 100 µM | [4] > 100 µM | [5] > 100 µM | [6] > 100 µM | [7] > 100 µM | [8] > 100 µM | [9] > 100 µM | [10] > 100 µM | [11] > 100 µM | [12] > 100 µM | [13] > 100 µM | [14] > 100 µM | [15] > 100 µM | [16] > 100 µM | [17] > 100 µM | [18] > 100 µM | [19] > 100 µM | [20] > 100 µM | [21] > 100 µM | [22] > 100 µM | [23] > 100 µM | [24] > 100 µM | [25] > 100 µM | [26] > 100 µM | [27] > 100 µM | [28] > 100 µM | [29] > 100 µM | [30] > 100 µM | [32] > 100 µM | [33] > 100 µM | [34] > 100 µM | [35] > 100 µM | [36] > 100 µM | [37] > 100 µM | [38] > 100 µM | [39] > 100 µM | [40] > 100 µM | [41] > 100 µM | [42] > 100 µM | [43] > 100 µM | [44] > 100 µM | [45] > 100 µM | [46] > 100 µM | [47] > 100 µM | [48] > 100 µM | [49] > 100 µM | [50] > 100 µM | [51] > 100 µM | [52] > 100 µM | [53] > 100 µM | [54] > 100 µM | [55] > 100 µM | [56] > 100 µM
> 100 µM: [31]

CC(O)CNC1=CC(=O)C(=O)c2ccccc21 (stereo not given)
inactive: [1] 17.1 µM | [2] 22.3 µM | [3] 16.1 µM | [4] 18.4 µM | [5] 19.5 µM | [7] 3 µM | [8] 12.9 µM | [9] 19 µM | [10] 14.9 µM | [11] 28.7 µM | [12] 16.5 µM | [13] 7.64 µM | [14] 34.5 µM | [15] 16.4 µM | [16] 18.7 µM | [18] 11.3 µM | [19] 15.9 µM | [20] 2.82 µM | [22] 15.8 µM | [57] 17.7 µM | [23] 35.4 µM | [24] 13.4 µM | [25] 28.9 µM | [26] 27.7 µM | [27] 16 µM | [28] 17.6 µM | [29] 18.6 µM | [30] 19 µM | [32] 18.2 µM | [33] 19.5 µM | [34] 18.5 µM | [35] 15.5 µM | [36] 27.4 µM | [37] 13.5 µM | [38] 22 µM | [39] 23 µM | [40] 16.7 µM | [41] 18.5 µM | [42] 19.5 µM | [43] 11.7 µM | [44] 18.2 µM | [45] 19.2 µM | [58] 20.9 µM | [46] 19.2 µM | [48] 16.7 µM | [49] 13.2 µM | [50] 22.8 µM | [51] 15.5 µM | [52] 4.15 µM | [53] 16 µM | [54] 14.3 µM | [55] 15.5 µM | [56] 37.9 µM
15 µM: [31]
